The text below walks through data of the METLIN SMRT retention time set (Domingo-Almenara et al. 2019).

SMILES strings stand for the structures.

The data set can be described thus: gradient 5% acetonitrile 3 min, to 50% in 2 min, to 85% in 15 min, held 3 min, 100 µL/min. Particulars: column: Zorbax Extend-C18 2.1 x 50 mm; eluents: water / acetonitrile, 0.1% formic acid. An outline of the steps: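 Over 3 months, pure standards in mixtures of ~100 molecules were run by HPLC coupled to a quadrupole time-of-flight mass spectrometer in positive and negative ionization mode. The column was a Zorbax Extend-C18 (2.1 × 50 mm, 1.8 μm) at 100 μL/min, eluted with water and acetonitrile each holding 0.1% formic acid, with 40 μL dead and 900 μL dwell volumes. Retention time was determined from adduct peaks chosen by software and checked manually.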
`Cc1nn2c(S(=O)(=O)N3CCN(C4CCCCC4)CC3)c(C)nc2s1` came in with an RP-LC retention time of 608 s.

`O=C1CCC(c2nc(-c3ccc4c(c3)OCO4)no2)=NN1Cc1ccccc1` had an RP-LC retention time of 1050 s.

For the compound `COc1ccccc1-c1noc(C2CCCN2C(=O)c2cnccn2)n1` (stereo not given), the RP-LC retention time stood at 720 s.

Compound `CCOc1ccc(C(=O)NC2CCN(c3cc(-c4ccc(OC)cc4)[nH]n3)C2)cc1` (stereo not given) returned an RP-LC retention time of 725 s.

With `O=C(NCc1cccs1)C1CCN(c2nnc(-c3ccccc3)o2)CC1`, the RP-LC retention time came to 769 s.

On to `CC(=O)NCc1ccc(-c2noc(Cc3ccc(Br)cc3)n2)s1`, for which the RP-LC retention time turned out to be 890 s.

Compound `O=C(Cc1nnc(-c2ccc3ncccc3c2)o1)NC1CCCCC1` registered an RP-LC retention time of 679 s.

Regarding `Cc1noc([C@@H]2CC(F)(F)CN2C(=O)c2ccoc2)n1`, the RP-LC retention time was 703 s.

`CN1C(=O)c2cccn2CC1CNC(=O)Nc1ccc2c(c1)OCCO2` (stereo not given) had an RP-LC retention time of 624 s.

In turn, `Cn1nnnc1SCC(=O)NCCOc1ccc(-c2ccc(F)cc2)nn1` came in with an RP-LC retention time of 654 s.

The compound `COc1ccc(N2CCN(C(=O)C3CCN(S(=O)(=O)c4cn(C(C)C)cn4)CC3)CC2)cc1` registered an RP-LC retention time of 706 s.

In turn, `Brc1cccc(-c2nnc3sc(-c4ccncc4)nn23)c1` registered an RP-LC retention time of 838 s.

In the case of `CC(=O)N1CCc2cc(N3CC(C(=O)Nc4ccc(F)cc4C)CC3=O)ccc21` (stereo not given), the RP-LC retention time worked out at 690 s.

`Cc1ccc(C(=O)N2CCCC(COc3ccc(C(=O)N4CCCC4)cc3)C2)cc1C` (stereo not given) had an RP-LC retention time of 940 s.

Compound `Cc1ccc(Oc2nccnc2N2CCCC(C(=O)Nc3ccc(Br)c(C)c3)C2)cc1` (stereo not given) returned an RP-LC retention time of 1290 s.

Turning to `COc1ccc(CN2CC(=O)N(c3cccc(C)c3)[C@@H]3CS(=O)(=O)C[C@@H]32)cc1`, the RP-LC retention time was found to be 788 s.

`Cc1ccccc1Cn1cc(-c2ccncc2)cc1C(=O)NC(C)c1cccnc1` (stereo not given) registered an RP-LC retention time of 579 s.

In the case of `CS(=O)(=O)N1CCCc2cc(C(=O)Nc3cccc(Br)c3)ccc21`, the RP-LC retention time came to 984 s.

`Cc1ccc(C)c(Nc2c(-c3ccc(Cl)cc3)nc3ncccn23)c1` returned an RP-LC retention time of 954 s.

For `O=C(NC1CCCCC1)C1CCN(c2cn[nH]c(=O)c2)C1` (stereo not given), the RP-LC retention time was 614 s.

Take `COC(=O)c1sccc1S(=O)(=O)N1CCN(S(=O)(=O)C2CC2)CC1`: the RP-LC retention time turned out to be 717 s.

For `COCCN1C(=O)c2ccccc2C(C(=O)NCc2ccccc2Cl)C12CCCC2` (stereo not given), the RP-LC retention time turned out to be 905 s.

As to `Cc1ccn2cc(-c3ccc(NC(=O)CCCc4ccccc4)cc3)nc2n1`, the RP-LC retention time stood at 694 s.

`Cc1ccc(N2C(=O)CN(CCc3cccs3)[C@H]3CS(=O)(=O)C[C@H]32)cc1` registered an RP-LC retention time of 825 s.

For `O=C(Cc1nnc(-c2ccsc2)o1)N1CCc2ccccc2C1`, the RP-LC retention time amounted to 780 s.

`Cc1ccc(Cn2cc(-c3ccncc3)cc2C(=O)N2CCC(N3CCCCC3)CC2)cc1`: the RP-LC retention time came to 564 s.

Turning to `COc1cc(N)c(Cl)cc1C(=O)OCCCN1CCCCC1`, the RP-LC retention time amounted to 655 s.

As for `Cc1ccc(-n2c(=O)c3sccc3n(Cc3nc(-c4ccc(F)cc4)no3)c2=O)cc1`, the RP-LC retention time is 1030 s.

`CCOc1ccc(CNC(=O)C2CCCN(c3nccnc3Oc3ccc(C)cc3)C2)cc1OCC` (stereo not given) registered an RP-LC retention time of 1070 s.

Take `Cc1csc(COc2ccc(C(=O)Nc3ccccc3OC(F)(F)F)cc2)n1`: the RP-LC retention time worked out at 933 s.

With `O=C(C1=CN(c2ccc(F)c(F)c2)c2ccccc2S1(=O)=O)N1CCCCC1`, the RP-LC retention time worked out at 1040 s.

On to `Cn1c(=O)c(N2CCC(C(=O)NCCCN3CCCC3=O)CC2)nc2ccccc21`, for which the RP-LC retention time came to 645 s.

The compound `COCCn1cc(CCNC(=O)Nc2ccc(Br)cc2F)c2cccnc21` gave an RP-LC retention time of 834 s.

`Cc1ccc(OCC(=O)NCC2(C)CCOCC2)cc1` returned an RP-LC retention time of 784 s.

In the case of `COc1cc(-c2nc3ncccn3c2Nc2ccccc2)ccc1O`, the RP-LC retention time came to 633 s.

On to `O=C(Nc1ccc(-n2cnnn2)cc1)c1ccc(OCc2nc(C3CC3)cs2)cc1`, for which the RP-LC retention time turned out to be 823 s.

`O=C(NC1CC1)C1CCc2sc(C(=O)N3CCCC3)cc2C1` (stereo not given) came in with an RP-LC retention time of 654 s.

For `Cc1cccc(NS(=O)(=O)c2ccc3c(c2)C(=O)N(C)c2ncccc2O3)c1`, the RP-LC retention time is 1050 s.

The compound `Cn1c(NC(=O)C2CC2)cc(=O)n(C)c1=O` displayed an RP-LC retention time of 605 s.

Compound `CCCCOc1ccc(CNC(=O)c2cc3c(=O)n(C)ccc3n2C)cc1` displayed an RP-LC retention time of 848 s.

Take `CNC(=O)Nc1ccc(C2(C(=O)N3CCN(c4ccccc4)CC3)CCC2)cc1`: the RP-LC retention time amounted to 754 s.

In turn, `CC(C)Cn1nc(CNC(=O)C2CCC2)c2ccccc21` registered an RP-LC retention time of 872 s.

In turn, `Cc1nc(CCNS(=O)(=O)c2ccc(Cl)cc2)no1` had an RP-LC retention time of 769 s.

`O=C(Cc1nnc(-c2cnccn2)o1)NCc1ccc(Cl)cc1` showed an RP-LC retention time of 698 s.

Turning to `CCOc1ccc(-c2nc(C3CC(=O)N(c4ccc(F)cc4)C3)no2)cc1` (stereo not given), the RP-LC retention time came to 1010 s.

As for `Cn1nc(C(=O)N2CCC(Nc3cccnc3)C2)c2ccccc21` (stereo not given), the RP-LC retention time is 781 s.

Consider `CCN1c2ccc(C)cc2C(=O)NC12CCN(C(=O)c1cccc(OC)c1)CC2`, for which the RP-LC retention time is 805 s.

`CCOC(=O)c1[nH]c(C)c(CCC(=O)N2CCC(C(=O)NC3CCCCC3)CC2)c1C` gave an RP-LC retention time of 778 s.

As to `O=C(NCCn1nc(-c2ccco2)ccc1=O)c1n[nH]c2ccccc12`, the RP-LC retention time amounted to 643 s.

Turning to `Cc1nn(C)c(C)c1CCCN(C)C(=O)c1cc2c(s1)N(C)CCCC2`, the RP-LC retention time stood at 770 s.

With `Cc1ccc(S(=O)(=O)N2CCOCC2)cc1-c1nnc(-c2ccc(Cl)cc2)o1`, the RP-LC retention time was 1030 s.

The compound `O=C(Cn1ncc2c3ccccc3n(Cc3ccc(F)cc3)c2c1=O)N1CCN(c2ccccn2)CC1` gave an RP-LC retention time of 689 s.

For `CCCCN1CCN(C(=O)CCc2cc3ccc(C)cc3[nH]c2=O)CC1`, the RP-LC retention time was found to be 628 s.

The compound `CCOc1ccc(-c2ccc(OCCNS(=O)(=O)c3ccccc3Cl)nn2)cc1` had an RP-LC retention time of 891 s.

`O=C(C1=CN(c2ccc3c(c2)OCCO3)c2cc(F)ccc2S1(=O)=O)N1CCCC1` had an RP-LC retention time of 735 s.

`CC(C)c1ccc(N2C(=O)C3N=NN(Cc4nc(-c5ccccc5Cl)no4)C3C2=O)cc1` (stereo not given) gave an RP-LC retention time of 1100 s.

Consider `O=C(Cn1c2c(c(=O)n(C3CCCCC3)c1=O)CCC2)NCc1ccco1`, for which the RP-LC retention time amounted to 764 s.

Take `COCc1c(C(=O)O)nnn1-c1cccc(C(F)(F)F)c1`: the RP-LC retention time was 760 s.

For `CC(C)CN1C(=O)c2cccn2CC1C(=O)NCCN1CCOCC1` (stereo not given), the RP-LC retention time amounted to 568 s.

`O=C(c1cc(S(=O)(=O)N2CCCC(C(=O)N3CCCCCC3)C2)c[nH]1)N1CCCC1` (stereo not given) came in with an RP-LC retention time of 729 s.
